Results from ChEMBL document CHEMBL1141299, “Hologram QSAR model for the prediction of human oral bioavailability” (Bioorg Med Chem, 2007).

Assay: Oral bioavailability in human
Details: in vivo

| SMILES | bioavailability [%] |
| --- | --- |
| C[C@H](NC(C)(C)C)C(=O)c1cccc(Cl)c1 | 70 |
| CN1CCN(C(=O)O[C@@H]2c3nccnc3C(=O)N2c2ccc(Cl)cn2)CC1 | 80 |
| C[C@@H](N)Cc1cccc(C(F)(F)F)c1 | 85 |
| N[C@H](Cc1ccc(N(CCCl)CCCl)cc1)C(=O)O | 71 |
| C[C@@H](NC(C)(C)C)C(=O)c1cccc(Cl)c1 | 70 |
| COc1ccc([C@H](CN(C)C)C2(O)CCCCC2)cc1 | 45 |
| O=C(O)[C@H]1N=C(c2ccccc2)c2cc(Cl)ccc2NC1=O | 91 |
| CCN(CC)C(=O)[C@]1(c2ccccc2)C[C@@H]1CN | 84 |
| O=C(O)[C@@H]1N=C(c2ccccc2)c2cc(Cl)ccc2NC1=O | 91 |
| NS(=O)(=O)c1cc([C@@]2(O)NC(=O)c3ccccc32)ccc1Cl | 64 |
| N[C@@H](Cc1ccc(N(CCCl)CCCl)cc1)C(=O)O | 71 |
| CC(C)=CCN1CC[C@]2(C)c3cc(O)ccc3C[C@H]1[C@H]2C [(+)-PENTAZOCINE] | 18 |
| NS(=O)(=O)c1cc([C@]2(O)NC(=O)c3ccccc32)ccc1Cl [(R)-CHLORTHALIDONE] | 64 |
| CN(C)CCC[C@]1(c2ccc(F)cc2)OCc2cc(C#N)ccc21 [(R)-CITALOPRAM] | 80 |
| COc1c(N2CCN[C@H](C)C2)c(F)cc2c(=O)c(C(=O)O)cn(C3CC3)c12 [(R)-GATIFLOXACIN] | 96 |
| O=C1Nc2ccc(Cl)cc2C(c2ccccc2Cl)=N[C@@H]1O [(R)-LORAZEPAM] | 93 |
| CN1C(=O)[C@@H](O)N=C(c2ccccc2Cl)c2cc(Cl)ccc21 [(R)-LORMETAZEPAM] | 75 |
| CC[C@@]1(c2ccccc2)C(=O)NC(=O)N(C)C1=O [(R)-METHYLPHENOBARBITAL] | 73 |

Same assay, conditions: in vivo, F

| SMILES | bioavailability [%] |
| --- | --- |
| CCOc1nc2cccc(C(=O)O)c2n1Cc1ccc(-c2ccccc2-c2nnn[nH]2)cc1 | 15 |
| COc1ccc(CCN(C)CCCC2(c3ccc(OC)c(OC)c3)S(=O)(=O)CCCS2(=O)=O)cc1OC | 22 |
| CNS(=O)(=O)CCc1ccc2[nH]cc(C3CCN(C)CC3)c2c1 | 67.5 |
| CN1CCC[C@@H]1Cc1c[nH]c2ccc(CCS(=O)(=O)c3ccccc3)cc12 | 62.5 |
| CCCc1nc(C)c2c(=O)[nH]c(-c3cc(S(=O)(=O)N4CCN(CC)CC4)ccc3OCC)nn12 | 15 |
| CCCc1nn(C)c2c(=O)[nH]c(-c3cc(S(=O)(=O)N4CCN(C)CC4)ccc3OCC)nc12 | 40 |
| COc1cc(N[C@@H](C)CCCN)c2ncccc2c1 | 96 |
| CCN(CC)CCC[C@H](C)Nc1ccnc2cc(Cl)ccc12 | 80 |
| CC(C)COC[C@H](CN(Cc1ccccc1)c1ccccc1)N1CCCC1 | 60 |
| O=C(NC[C@@H]1CCCCN1)c1cc(OCC(F)(F)F)ccc1OCC(F)(F)F | 95 |
| C[C@H](N/C(=N/c1ccncc1)NC#N)C(C)(C)C | 57 |
| COc1cc(N[C@H](C)CCCN)c2ncccc2c1 | 96 |
| CC(C)NC[C@H](O)c1ccc(NS(C)(=O)=O)cc1 | 60 |
| CN1CCN2c3ccccc3Cc3ccccc3[C@H]2C1 | 20 |
| CC(C)NC[C@@H](O)COc1ccc(OCCOCC2CC2)cc1 | 100 |
| C[C@@H](CN1CCN(CCOCCO)CC1)CN1c2ccccc2Sc2ccccc21 | 10 |
| COc1ccc(CCN(C)CCC[C@@](C#N)(c2ccc(OC)c(OC)c2)C(C)C)cc1OC | 13.5 |
| C[C@@H](N/C(=N/c1ccncc1)NC#N)C(C)(C)C | 57 |
| C[C@H](CN1CCN(CCOCCO)CC1)CN1c2ccccc2Sc2ccccc21 | 10 |
| CO/N=C1\CN(c2nc3c(cc2F)c(=O)c(C(=O)O)cn3C2CC2)C[C@@H]1CN | 71 |
| CC(C)NC[C@H](O)COc1ccc(OCCOCC2CC2)cc1 | 100 |
| CC1=CC[C@H](C(C)(C)O)C[C@H]1O | 72 |
| CC(C)COC[C@@H](CN(Cc1ccccc1)c1ccccc1)N1CCCC1 | 60 |
| CN1Cc2c(N)cccc2[C@@H](c2ccccc2)C1 | 27 |
| CN1Cc2c(N)cccc2[C@H](c2ccccc2)C1 | 27 |

| SMILES | bioavailability [%] |
| --- | --- |
| Nc1nc(N)c2nc(-c3ccccc3)c(N)nc2n1 | 51 |
| CCOC(=O)C(CCc1ccccc1)N[C@@H](C)C(=O)N1CCC[C@H]1C(=O)O (single isomer, unassigned) | 41 |
| Nc1nc(NC2CC2)c2ncn([C@H]3C=C[C@@H](CO)C3)c2n1 (single isomer, unassigned) [ABACAVIR] | 86 |
| C[C@@H](OC1OCCN(Cc2n[nH]c(=O)[nH]2)C1c1ccc(F)cc1)c1cc(C(F)(F)F)cc(C(F)(F)F)c1 (single isomer, unassigned) [APREPITANT] | 62.5 |
| C=C1/C(=C\C=C2/CCC[C@]3(C)[C@@H](C(C)CCCC(C)(C)O)CC[C@@H]23)C[C@@H](O)C[C@@H]1O (single isomer, unassigned) [CALCITRIOL] | 61 |
| CCCNC1CCc2nc(N)sc2C1 (single isomer, unassigned) [PRAMIPEXOLE] | 90 |
| Cc1ccsc1C(=CCCN1CCCC(C(=O)O)C1)c1sccc1C (single isomer, unassigned) [TIAGABINE] | 90 |
| CCc1cccc2cc([C@H](O)CNC(C)(C)C)oc12 [(R)-BUFURALOL] | 46 |
| CCN(CC)CCC[C@@H](C)Nc1ccnc2cc(Cl)ccc12 [(R)-CHLOROQUINE] | 80 |
| CCN1C[C@H](CCN2CCOCC2)C(c2ccccc2)(c2ccccc2)C1=O [(R)-DOXAPRAM] | 61 |
| CCOC(=O)C1=C(C)NC(C)=C(C(=O)OC)[C@H]1c1cccc(Cl)c1Cl [(R)-FELODIPINE] | 15 |
| CC(C)Cc1ccc([C@@H](C)C(=O)O)cc1 [(R)-IBUPROPHEN] | 80 |
| COC(=O)C1=C(C)NC(C)=C(C(=O)OC(C)C)[C@@H]1c1cccc2nonc12 [(R)-ISRADIPINE] | 19.5 |
| Cc1cc2c(OC[C@H](O)CNC(C)C)cccc2[nH]1 [(R)-MEPINDOLOL] | 82 |
| Cc1cccc(C)c1OC[C@@H](C)N [(R)-MEXILETINE] | 87 |
| COc1ccc(OC)c([C@@H](O)CNC(=O)CN)c1 [(R)-MIDODRINE] | 93 |
| CCOC(=O)C1=C(C)NC(C)=C(C(=O)OC)[C@H]1c1cccc([N+](=O)[O-])c1 [(R)-NITRENDIPINE] | 16 |
| Cc1nccn1C[C@H]1CCc2c(c3ccccc3n2C)C1=O [(R)-ONDANSETRON] | 62 |
| O[C@@](CCN1CCCC1)(c1ccccc1)C1CCCCC1 [(R)-PROCYCLIDINE] | 75 |
| CCC(=O)c1ccc2c(c1)N(C[C@@H](C)N(C)C)c1ccccc1S2 [(R)-PROPIOMAZINE] | 33 |
| C[C@@H](O)Cn1cnc2c1c(=O)n(C)c(=O)n2C [(R)-PROXYPHYLLINE] | 100 |
| C[C@@H](C(=O)O)c1ccc(C(=O)c2cccs2)cc1 [(R)-SUPROFEN] | 92 |
| Cc1cccc(C)c1NC(=O)[C@@H](C)N [(R)-TOCAINIDE] | 89 |
| Cc1cccc(OC[C@H](O)CNC(C)C)c1 [(R)-TOLIPROLOL] | 90 |
| CC(C)[C@H](N)C(=O)OC[C@@H](CO)OCn1cnc2c(=O)nc(N)[nH]c21 [(R)-VALGANCICLOVIR] | 59.4 |
